Target: T1, 5-Lipoxygenase (Homo sapiens, UniProt P09917)
T1 construct: Human heparinized whole blood was preincubated with test compounds; from tissue; host or cells: human heparinized whole blood
T1 sequence (P09917 1-674): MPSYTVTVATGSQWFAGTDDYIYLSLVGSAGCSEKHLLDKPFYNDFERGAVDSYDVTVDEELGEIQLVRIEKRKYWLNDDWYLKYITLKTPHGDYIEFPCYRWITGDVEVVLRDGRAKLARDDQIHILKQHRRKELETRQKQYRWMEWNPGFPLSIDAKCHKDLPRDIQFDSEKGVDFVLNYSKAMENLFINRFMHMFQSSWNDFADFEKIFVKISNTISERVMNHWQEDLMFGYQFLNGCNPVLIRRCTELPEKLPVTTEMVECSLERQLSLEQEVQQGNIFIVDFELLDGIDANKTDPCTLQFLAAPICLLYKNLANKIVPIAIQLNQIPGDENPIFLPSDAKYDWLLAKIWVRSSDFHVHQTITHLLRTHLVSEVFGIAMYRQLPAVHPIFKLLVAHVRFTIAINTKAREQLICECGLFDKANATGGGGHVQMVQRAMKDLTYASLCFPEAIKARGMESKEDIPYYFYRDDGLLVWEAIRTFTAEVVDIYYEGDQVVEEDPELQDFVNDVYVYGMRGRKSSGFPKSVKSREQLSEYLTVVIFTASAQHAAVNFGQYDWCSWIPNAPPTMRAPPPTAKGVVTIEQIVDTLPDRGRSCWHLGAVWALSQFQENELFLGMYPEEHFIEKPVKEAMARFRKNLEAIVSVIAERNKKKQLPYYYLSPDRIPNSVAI
Assay: Inhibition of calcium ionophore A23187-induced LTB4 biosynthesis in human whole blood
Assay type: cell-based
Settings: human heparinized whole blood, 15 min preincubation 37° C., A23187 8.3 μM, 30 min
Protocol: Inhibition of leukotriene biosynthesis was evaluated in an assay, involving calcium ionophore-induced LTB4 biosynthesis expressed human whole blood. Human heparinized whole blood was preincubated with test compounds or vehicle for 15 min 37° C. followed by calcium ionophore A23187 challenge (final concentration of 8.3 μM) and the reaction terminated after 30 min by adding two volumes of methanol containing prostaglandin B2 as an internal recovery standard. The methanol extract was analyzed for LTB4 using a commercially available radioimmunoassay.

CON=C(c1cc(F)cc(OCc2ccc(N(C)C(C)=O)cc2)c1)C1CCOCC1 [Example 1, E- and Z-O-Methyl-4-[(3-(4-(N-acetyl-N-methylamino)benzyloxy)-5-fluoro-phenyl)oximinomethyl]tetrahydropyran]
In vitro inhibitory potency against 5-lipoxygenase from stimulated LTB4 formation in human whole blood (percent inhibition) (@ 1.56 μM): 100%

CON=C(c1cc(F)cc(OCc2cccc(N(C)C(=O)N(C)C)c2)c1)C1CCOCC1 [Example 43, E- and Z-O-Methyl-4-[(3-(3-(N',N'-dimethylaminocarbonyl-N-methylamino)-benzyloxy)-5-fluoro-phenyl)oximinomethyl]tetrahydropyran]
In vitro inhibitory potency against 5-lipoxygenase from stimulated LTB4 formation in human whole blood (percent inhibition) (@ 3.13 μM): 12%

CON=C(c1cc(F)cc(OCc2ccc(N(C)C(=O)N(C)C)cc2)c1)C1CCOCC1 [Example 5, E- and Z-O-Methyl-4-[(3-(4-N',N'-dimethylaminocarbonyl-N-methylamino)benzyloxy)-5-fluoro-phenyl)oximinomethyl]tetrahydropyran]
In vitro inhibitory potency against 5-lipoxygenase from stimulated LTB4 formation in human whole blood (percent inhibition) (@ 0.78 μM): 100%

Reference: patent publication US5484786A, “Pyran-4-ylmethyl substituted arylalkylaryl-, arylalkenylylaryl-, and arylalkynylarylurea inhibitors of 5-lipoxygenase” (Abbott Laboratories, priority 1993, dated 1996)
